Read-outs that look alike come from different tables or passages of the source.
Tests used:
[1] = test system: TNF release from LPS-stimulated monocytes; test: Inhibition of TNF release from LPS-stimulated monocytes; assay type: cell-based, human; conditions: for IC50: Homo sapiens, Monocyte, substance alone, LPS-stimulated monocytes
Method: EDTAized human whole blood was mixed with Hanks' buffer in the ratio 1:1. Histopaque 1077 solution (15 ml) was cautiously overlaid with max. 40 ml of the blood: Hanks' mixture and centrifuged (2000 rpm) at room temperature for 30 min. The band enriched with leukocytes was aspirated off, washed twice with Hanks' buffer and transferred into RPMI 1640 medium with Glutamax I (Gibco BRL, Eggenstein). The monocytes were removed through their adherence to the cell culture bottle over a period of two hours. The cells were then thoroughly washed with medium in order to remove non-adherent cells. The resulting monocytes were cultured in RPMI 1640 medium with 10% heat-inactivated fetal calf's serum (FCS) and 100 U/ml penicillin and 100 μg/ml streptomycin in a CO2 incubator (5% CO2, 96% relative humidity, 37° C.).
Primary monocytes were seeded in 24-well plates at 5×10^5 cells/well. The cells were preincubated with the stated test substances for 30 minutes. LPS was then added, and incubation was continued for a period of 24 h. The supernatants were aspirated off and investigated by ELISA.

[2] = test system: GM-CSF release from LPS-stimulated monocytes; test: Inhibition of GM-CSF release from LPS-stimulated monocytes; assay type: cell-based, human; conditions: for IC50: Homo sapiens, Monocyte
Method: Inhibition of GM-CSF Release from LPS-Stimulated Monocytes EDTAized human whole blood was mixed with Hanks' buffer in the ratio 1:1. Histopaque 1077 solution (15 ml) was cautiously overlaid with max. 40 ml of the blood: Hanks' mixture and centrifuged (2000 rpm) at room temperature for 30 min. The band enriched with leukocytes was aspirated off, washed twice with Hanks' buffer and transferred into RPMI 1640 medium with Glutamax I (Gibco BRL, Eggenstein). The monocytes were removed through their adherence to the cell culture bottle over a period of two hours. The cells were then thoroughly washed with medium in order to remove non-adherent cells. […] The cells were preincubated with the stated test substances for 30 minutes. LPS was then added, and incubation was continued for a period of 24 h. The supernatants were aspirated off and investigated by ELISA. The amount of secreted human GM-CSF in the cell culture supernatants was determined by using an OptEIA™ human GM-CSF ELISA test (Pharmingen, San Diego). It was carried out in microtiter plates. Anti-human monoclonal antibodies were coupled as antibodies to the plate at 4° C. overnight. This coating and three washes were followed by saturation of nonspecific bindings by means of assay diluent solution™ (PBS with 10% FCS, pH 7.0) (Pharmingen, San Diego) at RT for 1 h. This was followed by incubation with the samples and the standard (recombinant human GM-CSF) at 4° C. overnight. […] All the steps were followed by washing 5 or 7 times with PBS/0.05% Tween 20. The enzyme activity was determined using substrate solution™ (tetramethylbenzidine (TMB) and hydrogen peroxide, Pharmingen, San Diego) as substrate at RT for 30 min. The enzyme-substrate reaction was stopped with 1M phosphoric acid, and the extinction at 450 nm was measured.

[3] = when 10 nM loteprednol was given simultaneously
[4] = substance alone, LPS-stimulated primary monocytes, 24 h, read-out: IC50 for GM-CSF release from human monocytes

Row | SMILES | IC50 [1] [nM] | reduction in the IC50 for TNF release [1, 3] [%] | IC50 ([2]; addition of 10 nM loteprednol, read-out: IC50 for DFHO for GM-CSF release in the presence of loteprednol) [nM] | IC50 [2, 4] [nM] | reduction in the IC50 for GM-CSF release [2, 3] [%] | reduction in the IC50 for TNF release ([1]; when 5 nM DFHO was given) [%] | IC50 ([2]; addition of 5 nM DFHO, read-out: IC50 for loteprednol for GM-CSF release in the presence of DFHO) [nM] | reduction in the IC50 for GM-CSF release ([2]; when 5 nM DFHO was given) [%]
1 | O=C(Nc1c(Cl)cncc1Cl)C(=O)c1cn(Cc2ccc(F)cc2)c2ccc(O)cc12 [DFHO, N-(3,5-dichloropyridin-4-yl)-2-[1-(4-fluoro-benzyl)-5-hydroxyindol-3-yl]-2-oxoacetamide] | 5700 | 99 | 60 | 3200 | 98 | – | – | –
2 | CCOC(=O)O[C@]1(C(=O)OCCl)CC[C@H]2[C@@H]3CCC4=CC(=O)C=C[C@]4(C)[C@H]3[C@@H](O)C[C@@]21C [loteprednol] | 85.5 | – | – | 53.7 | – | 65 | 13.4 | 75

Reference: US20050288265A1, “Novel combination of glucocorticoids and pde-4 inhibitors for treating respiratory diseases, allegic diseases, asthma and copd” (priority 2002, published 2005)
